Experimental data published in patent US9289433B2, “Proteasome inhibitors and uses thereof” (Yeda Research and Development Co. Ltd., priority 2009, dated 2016).
Non-standard residues stand in square brackets, D forms with d. Residues, ends and D or L forms follow the SMILES beside them. *: point of attachment. Nle = CCCC[C@H](N)C(=O)O; Cbz = O=C(OCc1ccccc1)*

Tests used:
proteasome [1] = molecular target: T1, proteasome (Homo sapiens, UniProt P28072+P28074+Q99436); experiment: Image-based PIR nuclear translocation assay in H1299-PIR reporter cells; type: cell-based; conditions: for PIR nuclear translocation in the NCI Diversity Set screen: 1 and 10 μM, 12 hours incubation; for PIR nuclear translocation upon treatment with known proteasome inhibitors: H1299-PIR cells, 6 hours, microscopy
T1 construct: endogenous in cells; host or cells: H1299-PIR (H1299 stably expressing the p53-YFP reporter)
From the text: To construct a YFP-tagged Proteasome Inhibitor Reporter (PIR) protein, cDNA encoding a full-length human p53 R175H mutant was amplified by PCR from a cDNA clone, and three consecutive lysine residues in the bipartite Nuclear Localization Signal (NLS) were replaced with alanines by PCR-based, site-directed mutagenesis [Higuchi R, et al., (1988) Nucleic Acids Res 16: 7351-7367; Ho S N, et al (1989) Gene 77: 51-59]. The DNA fragment was cloned into the BglII and NotI sites of pLPCX retroviral vector (Clontech) in-frame to the N-terminus of the yellow fluorescent protein (YFP), using the NotI/ClaI restriction sites. The PIR protein was expressed in an H1299 non-small cell lung carcinoma cell line, following retroviral infection, and the cells were cultured in RPMI 1640 medium containing 10% fetal bovine serum, 2 mM glutamine and 1% penicillin-streptomycin (all from Sigma-Aldrich) in a humidified atmosphere of 5% CO2 at 37° C. Fluorescent cells were isolated by flow cytometry, and single-cell cloning was used to generate a morphologically uniform cell population.
PIR-expressing H1299 cells were seeded at a density of 800 cells per well in 384-well assay plates (F-bottom, μClear, black, tissue-culture-treated) (Greiner Bio-One). Cells were cultured for 24 hours and treated with the library compounds at two concentrations (1 and 10 μM) in RPMI 1640. In each assay plate, cells in 24 wells treated with 0.2% DMSO alone were used as controls. […] Following 12 hours of incubation, cells were fixed in 3% paraformaldehyde for 20 minutes, then washed with PBS and screened for localization of the PIR protein.
WiScan™ Cell Imaging System (Idea Bio-Medical) was used for this screen [Paran Y et al., 2006, Methods Enzymol 414: 228-247]. The system is based on an IX71 microscope (Olympus), equipped with a fast laser AutoFocus device and an automated stage. Thirty-six fields were acquired from every well using a 60×/0.9 air objective, stored, and tiled into montages to detect consistent effects. Scoring of the nuclear translocation of the fluorescent PIR protein was carried out manually.
The cells were then fixed and scored for nuclear translocation of PIR.

proteasome [2] = molecular target: T1, proteasome; experiment: Western blot for accumulation of polyubiquitinated proteins and β-catenin in H1299-PIR cells; type: cell-based; conditions: 6 hours
Description: H1299-PIR cells were lysed with radioimmune precipitation assay buffer (1% NP-40, 1% sodium deoxycholate, 0.1% SDS, 150 mM NaCl, 50 mM Tris, pH 8.0) containing a protease inhibitor cocktail from Roche Applied Science. Protein extracts were subjected to 8% SDS-PAGE, transferred to a nitrocellulose membrane (Whatman), and probed with monoclonal anti-p53 (DO1, Santa Cruz Biotechnology), anti-ubiquitin (Covance), anti-β-catenin (Sigma) and anti-β-tubulin (Sigma) primary antibodies.
One characteristic outcome of proteasome inhibition is the accumulation of ubiquitinated proteins in the treated cells. […] Following incubation, cell extracts were analyzed by Western blot, using anti-ubiquitin and anti-β-catenin antibodies.

[3] = system: purified rabbit 26S proteasomes; experiment: In vitro proteasome activity assay, Suc-LLVY-AMC degradation; type: biochemical; conditions: MG132 control at 5 μM
Description: For measuring proteasome activity, purified 20S or 26S proteasomes prepared from rabbit muscles were incubated at a final concentration of 16 nM, with 100 μM fluorogenic 7-amido-4-methylcoumarin (AMC) tetrapeptide substrate Suc-LLVY-AMC (Bachem) and the stated concentration of the hit compounds in the presence of 100 μl of assay buffer (50 mM Hepes, 5 mM MgCl2, 2 mM ATP and 1 mM DTT). […] The time-dependent increase of hydrolyzed AMC groups was measured in a 96-well plate equilibrated to 37° C., using a Varioscan multi-well plate reader (Thermo Fisher Scientific, Inc.) in a kinetic mode, in which the recording intervals were set to 1 minute. The excitation wavelength was 370 nm; fluorescence emission was recorded at 465 nm.
To directly test the capacity of the four compounds to inhibit activity in mammalian proteasomes, an in vitro activity assay was performed in which the hit compounds were tested for their effects on the degradation of the model fluorogenic tetrapeptide LLVY-AMC by purified rabbit 26S proteasomes.

PIR-H1299 cells = experiment: AlamarBlue cell viability assay; type: cell-based, human; conditions: 48 hours, 0.1 to 100 μM
Description: The effect of each hit compound on cell viability was tested at 11 different concentrations, ranging from 0.1-100 μM. PIR cells were plated onto 384-well microplates for 24 hours, and then treated for 48 h with the library compounds. Cell viability was determined using the colorimetric AlamarBlue® (Invitrogen) viability assay, according to the manufacturer's instructions.
Proteasome inhibitors are known to be particularly cytotoxic to malignant cells via multiple mechanisms. To directly test the effects of the new proteasome inhibitors discovered in this study on cell viability, PIR-expressing H1299 cells were treated for 48 hours with each of the four compounds, at a wide range of concentrations, ranging from 0.1 to 100 μM. The cells were then subjected to an Alamar Blue viability assay, which quantifies the number of metabolically active cells. […] For all proteasome inhibitors examined in this screen, there was a high correlation between proteasomal inhibitory activity and cell viability.

MDA-MB-231 cells = experiment: Cell viability, malignant breast carcinoma cells; type: cell-based, human
MCF10A = experiment: Cell viability, normal breast epithelial cell line; type: cell-based, human; conditions: considerably higher concentration than for MDA-MB-231
[4] = molecular target: proteasome β2, β1 and β5 activities (Homo sapiens, UniProt P28072+P28074+Q99436); experiment: Inhibition of tryptic-, caspase- and chymotrypsin-like proteasome activities; type: biochemical
[5] = system: NCI-60 panel of human tumor cell lines; conditions: molar concentration, cited from earlier work; for average −log10 GI50 over the panel: all NCI-60 cell lines; for overall −log10 GI50, leukemia cells: leukemia subpanel
proteasome [6] = molecular target: T1, proteasome; conditions: after 20 hours of treatment, flow cytometry; cited from earlier work

proteasome β2, β1 and β5 activities, sequence (Q99436 44-277): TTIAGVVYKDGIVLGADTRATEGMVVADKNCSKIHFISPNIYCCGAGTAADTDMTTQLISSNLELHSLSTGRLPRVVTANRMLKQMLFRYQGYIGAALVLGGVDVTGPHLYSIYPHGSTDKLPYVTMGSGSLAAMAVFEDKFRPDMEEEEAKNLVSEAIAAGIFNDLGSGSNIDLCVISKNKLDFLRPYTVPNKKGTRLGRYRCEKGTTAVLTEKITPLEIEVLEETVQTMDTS
proteasome β2, β1 and β5 activities, sequence (P28072 whole entry): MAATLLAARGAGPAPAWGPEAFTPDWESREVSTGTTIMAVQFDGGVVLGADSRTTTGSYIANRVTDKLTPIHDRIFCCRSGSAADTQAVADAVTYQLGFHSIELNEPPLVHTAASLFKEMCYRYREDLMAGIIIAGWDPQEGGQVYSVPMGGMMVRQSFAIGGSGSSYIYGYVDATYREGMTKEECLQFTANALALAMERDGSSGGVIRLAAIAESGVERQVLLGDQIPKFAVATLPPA
proteasome β2, β1 and β5 activities, sequence (P28074 60-263): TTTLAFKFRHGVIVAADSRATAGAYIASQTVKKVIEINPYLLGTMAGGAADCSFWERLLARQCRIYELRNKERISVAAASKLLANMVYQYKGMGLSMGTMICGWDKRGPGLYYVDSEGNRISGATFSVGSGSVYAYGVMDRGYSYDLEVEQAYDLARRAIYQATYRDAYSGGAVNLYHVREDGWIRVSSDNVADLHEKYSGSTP
proteasome β2, β1 and β5 activities, sequence (P49720 whole entry partner): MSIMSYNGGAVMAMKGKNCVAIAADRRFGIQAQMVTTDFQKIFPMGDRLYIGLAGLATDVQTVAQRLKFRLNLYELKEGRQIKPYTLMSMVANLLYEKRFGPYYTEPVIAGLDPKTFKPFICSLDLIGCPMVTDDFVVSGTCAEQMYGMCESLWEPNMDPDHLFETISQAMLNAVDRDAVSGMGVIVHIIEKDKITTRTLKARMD

Compound | PIR nuclear translocation in the NCI Diversity Set screen (proteasome [1]) | inhibition of LLVY-AMC degradation by purified 26S proteasome ([3]; 30 μM compound) | GI50 (PIR-H1299 cells) [nM] | average −log10 GI50 over the panel [5] | overall −log10 GI50, leukemia cells [5] | PIR nuclear translocation upon treatment with known proteasome inhibitors (proteasome [1]) | further results
CSC(=[SH+])[N-]N=C(c1ccccn1)c1ccccn1.[Cu][Br] [NSC321206] | positive in the assay | levels of inhibition comparable to that of MG132 | 170 | 7.2 | 7.73 | – | accumulation of polyubiquitinated proteins and β-catenin (inhibitory effect on proteasomal degradation) (proteasome [2]; 0.15 μM): inhibitory activity comparable to that of 5 μM MG132; GI50 (MDA-MB-231 cells; MDA-MB-231): 400 nM; effect on cell viability (MDA-MB-231 cells; MDA-MB-231, 1 μM): effectively eliminated all MDA-MB-231 cells; effect on cell viability (MCF10A): only partially affected; inhibition of Tryptic like (β2), Caspase like (β1) and Chymotrypsin like (β5) activities of the proteasome [4]: observed inhibition
CC(C)C[C@H](NC(=O)[C@H](Cc1ccccc1)NC(=O)c1cnccn1)B(O)O [Bortezomib, Pyz-Phe-boroLeu, reference compound] | – | – | – | – | – | PIR translocates into the nucleus | –
CCCC[C@@H](C=O)NC(=O)[C@H](CC(C)C)NC(=O)[C@H](CC(C)C)NC(C)=O [ALLN, reference compound] (Ac-Leu-Leu-[Nle]-aldehyde) | – | – | – | – | – | PIR translocates into the nucleus | –
CS/C([S-])=N/N=C/c1cccc(C)n1.CS/C([S-])=N/N=C/c1cccc(C)n1.[Cu+2] [NSC310551] | positive in the assay | levels of inhibition comparable to that of MG132 | 270 | 6.6 | 7.028 | – | accumulation of polyubiquitinated proteins and β-catenin (inhibitory effect on proteasomal degradation) (proteasome [2]; 0.3 μM): inhibitory activity comparable to that of 5 μM MG132
8-Quinolinol salicylate [NSC3907] | positive in the assay | – | 47000 | 5.3 | 6.249 | – | accumulation of polyubiquitinated proteins and β-catenin (inhibitory effect on proteasomal degradation) (proteasome [2]; 20 μM): less of an inhibitory effect; inhibition of LLVY-AMC degradation by purified 26S proteasome ([3]; 100 μM compound): only a minor effect
CC(C)C[C@@H](C=O)NC(=O)[C@H](CC(C)C)NC(=O)[C@H](CC(C)C)NC(=O)OCc1ccccc1 [MG132, reference compound] (Cbz-Leu-Leu-Leu-aldehyde) | – | – | – | – | – | PIR translocates into the nucleus | concentration at which MG132 is detected (proteasome [6]): 2.5 µM
NC(CCC(=O)O)C(=O)O (centres unmarked) [NSC99671] | positive in the assay | moderate inhibitory effect | 96000 | 4.1 | 4.473 | – | accumulation of polyubiquitinated proteins and β-catenin (inhibitory effect on proteasomal degradation) (proteasome [2]; 50 μM): less of an inhibitory effect
